# Source: patent US11566007B2, “Ras inhibitors” (Revolution Medicines, Inc., priority 2019, dated 2023)
# Columns and labels:
# [1] = molecular target: KRAS G13D (Homo sapiens (Human), UniProt P01116+P62937, G13D); assay: Ras-Raf (BRAF RBD) disruption / FRET / MOA assay, KRAS G13D; type: biochemical; conditions: read-out: IC50* KRAS G13D FRET data
# Procedure, shortened: (§1)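 Compounds, top final concentration 30 μM in 10-point 3-fold series, incubated 3 hours at 25° C with nucleotide-loaded Ras, cyclophilin A and BRAF RBD.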
# [2] = molecular target: KRAS WT (Homo sapiens (Human), UniProt P01116+P62937); assay: Ras-Raf (BRAF RBD) disruption / FRET / MOA assay, KRAS WT; type: biochemical; conditions: read-out: IC50* KRAS WT FRET data
# KRAS WT, sequence (P01116-2 other isoform, or with tags, fused parts or gaps): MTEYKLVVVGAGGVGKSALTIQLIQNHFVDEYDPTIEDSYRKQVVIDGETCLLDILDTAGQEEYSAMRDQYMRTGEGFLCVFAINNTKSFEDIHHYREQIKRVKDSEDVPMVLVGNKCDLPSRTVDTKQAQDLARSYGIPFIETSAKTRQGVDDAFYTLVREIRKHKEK
# KRAS WT, sequence (P62937 whole entry): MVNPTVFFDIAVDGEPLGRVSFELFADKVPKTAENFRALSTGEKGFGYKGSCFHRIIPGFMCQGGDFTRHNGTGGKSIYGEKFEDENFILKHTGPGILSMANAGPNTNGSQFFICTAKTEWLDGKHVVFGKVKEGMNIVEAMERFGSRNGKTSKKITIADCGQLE
# Procedure, shortened: as §1
# [3] = molecular target: KRAS G12S (Homo sapiens (Human), UniProt P01116+P62937, G12S); assay: Ras-Raf (BRAF RBD) disruption / FRET / MOA assay, KRAS G12S; type: biochemical; conditions: Ras-Raf disruption/FRET/MOA assay; class symbols; read-out: KRAS G12S FRET data IC50
# KRAS G12S, sequence (P01116-2 other isoform, or with tags, fused parts or gaps G12S): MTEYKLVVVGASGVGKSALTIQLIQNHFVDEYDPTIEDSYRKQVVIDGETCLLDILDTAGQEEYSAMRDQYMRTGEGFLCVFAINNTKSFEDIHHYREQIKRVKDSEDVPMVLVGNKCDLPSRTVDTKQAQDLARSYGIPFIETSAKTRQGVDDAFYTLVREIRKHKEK
# KRAS G12S, sequence (P62937 whole entry): as the sequence (P62937 whole entry) above
# Procedure, shortened: as §1
# [4] = molecular target: NRAS Q61K (Homo sapiens (Human), UniProt P01111+P62937, Q61K); assay: Ras-Raf (BRAF RBD) disruption / FRET / MOA assay, NRAS Q61K; type: biochemical; conditions: NRAS Q61K; Ras-Raf disruption/FRET/MOA assay; read-out: IC50* NRAS Q61K FRET data
# NRAS Q61K, sequence (P01111 whole entry Q61K): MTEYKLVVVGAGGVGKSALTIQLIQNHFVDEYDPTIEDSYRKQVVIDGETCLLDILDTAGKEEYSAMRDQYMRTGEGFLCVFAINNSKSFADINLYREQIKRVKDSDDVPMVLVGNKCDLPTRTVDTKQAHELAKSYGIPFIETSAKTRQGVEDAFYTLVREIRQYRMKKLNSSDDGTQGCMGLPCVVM
# NRAS Q61K, sequence (P62937 whole entry): as the sequence (P62937 whole entry) above
# Procedure, shortened: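 TR-FRET disruption of nucleotide-loaded Ras binding to BRAF RBD via compound-driven ternary complex with cyclophilin A. Compound as 10-point 3-fold series from 30 μM final, 3 h at 25° C, then anti-His Eu-W1024 (10 nM) and anti-GST allophycocyanin (50 nM) for 1.5 h. IC50 from decreased FRET ratio versus DMSO.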
# [5] = molecular target: NRAS G12C (Homo sapiens (Human), UniProt P01111+P62937, G12C); assay: Ras-Raf (BRAF RBD) disruption / FRET / MOA assay, NRAS G12C; type: biochemical; conditions: read-out: IC50* NRAS G12C FRET data
# NRAS G12C, sequence (P01111 whole entry G12C): as the sequence (P01111 whole entry Q61K) above, with G12C, K61Q counted along it
# NRAS G12C, sequence (P62937 whole entry): as the sequence (P62937 whole entry) above
# Procedure, shortened: as §1
# [6] = test system: NCI-H358 cells (K-Ras G12C); assay: Potency assay: pERK in NCI-H358 cells; type: cell-based, human; conditions: Homo sapiens, NCI-H358; H358 KRAS G12C; read-out: pERK EC50
# Procedure, shortened: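 pERK decrease read by AlphaLISA SureFire p-ERK1/2 or In-Cell Western after 4 h compound exposure at 37 °C, 5% CO2.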
# [7] = molecular target: K-Ras G13C (Homo sapiens (Human), UniProt P01116+P62937, G13C); assay: Ras-Raf (BRAF RBD) disruption / FRET / MOA assay, KRAS G13C; type: biochemical; conditions: KRAS G13C; Ras-Raf disruption/FRET/MOA assay; read-out: IC50* KRAS G13C FRET data
# K-Ras G13C, sequence (P01116-2 other isoform, or with tags, fused parts or gaps G13C): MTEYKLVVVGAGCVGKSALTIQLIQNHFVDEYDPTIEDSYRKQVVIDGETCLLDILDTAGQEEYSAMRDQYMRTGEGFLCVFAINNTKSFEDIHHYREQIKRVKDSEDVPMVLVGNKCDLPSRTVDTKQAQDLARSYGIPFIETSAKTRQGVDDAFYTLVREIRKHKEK
# K-Ras G13C, sequence (P62937 whole entry): as the sequence (P62937 whole entry) above
# Procedure, shortened: as §1
# KRAS G13D, sequence (P01116-2 other isoform, or with tags, fused parts or gaps G13D): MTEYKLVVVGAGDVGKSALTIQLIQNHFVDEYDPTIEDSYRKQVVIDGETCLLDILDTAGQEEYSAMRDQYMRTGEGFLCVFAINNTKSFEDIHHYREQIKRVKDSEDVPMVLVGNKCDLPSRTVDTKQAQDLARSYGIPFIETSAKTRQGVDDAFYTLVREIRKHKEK
# KRAS G13D, sequence (P62937 whole entry): as the sequence (P62937 whole entry) above
SMILES,IC50 [1],IC50 [2],IC50 [3],IC50 [4],IC50 [5],EC50 [6],IC50 [7]
"CO[C@@H](C)c1ncccc1-c1c2c3cc(ccc3n1CC(F)(F)F)N1CCO[C@@H](C[C@H](NC(=O)[C@@H](COC3CN(C(=O)C#CC(C)(C)N(C)C)C3)C(C)C)C(=O)N3CCC[C@H](N3)C(=O)OCC(C)(C)C2)C1 (atropisomer, axis not shown) [Example A375, (2R)-2-(((1-(4-(dimethylamino)-4-methylpent-2-ynoyl)azetidin-3-yl)oxy)methyl)-N-((2^2S,6^3S,4S)-1^2-(2-((S)-1-methoxyethyl)pyridin-3-yl)-10,10-dimethyl-5,7-dioxo-1^1-(2,2,2-trifluoroethyl)-6^1,6^2,6^3,6^4,6^5,6^6-hexahydro-1^1H-8-oxa-2(4,2)-morpholina-1(5,3)-indola-6(1,3)-pyridazinacycloundecaphane-4-yl)-3-methylbutanamide]",> 10000 nM,1000 to 10000 nM,> 10000 nM,> 10000 nM,< 10 nM,< 5000 nM,1000 to 10000 nM
"C=CC(=O)NCCN1CCN(C(=O)N(C)[C@H](C(=O)N[C@H]2Cc3nc(cs3)-c3ccc4c(c3)c(c(-c3cccnc3[C@H](C)OC)n4CC)CC(C)(C)COC(=O)[C@@H]3CCCN(N3)C2=O)C(C)C)CC1 (atropisomer, axis not shown) [Example A582]",100 to 1000 nM,100 to 1000 nM,100 to 1000 nM,10 to 100 nM,10 to 100 nM,< 5000 nM,100 to 1000 nM
"C=CC(=O)N1CC[C@]2(C1)OCN([C@H](C(=O)N[C@H]1Cc3cccc(c3)-c3ccc4c(c3)c(c(-c3cccnc3[C@H](C)OC)n4CC)CC(C)(C)COC(=O)[C@@H]3CCCN(N3)C1=O)C(C)C)C2=O (atropisomer, axis not shown) [Example A371]",> 10000 nM,1000 to 10000 nM,1000 to 10000 nM,> 10000 nM,10 to 100 nM,< 5000 nM,100 to 1000 nM
"C=CC(=O)N1C[C@@H]2CN(C(=O)N(C)[C@H](C(=O)N[C@H]3Cc4nc(cs4)-c4ccc5c(c4)c(c(-c4cccnc4[C@H](C)OC)n5CC)CC(C)(C)COC(=O)[C@@H]4CCCN(N4)C3=O)C(C)C)C[C@@H]2C1 (atropisomer, axis not shown) [Example A389]",100 to 1000 nM,10 to 100 nM,10 to 100 nM,10 to 100 nM,10 to 100 nM,< 5000 nM,10 to 100 nM
"C=CC(=O)N1CC[C@@]2(CCN2C(=O)N(C)[C@H](C(=O)N[C@H]2Cc3nc(cs3)-c3ccc4c(c3)c(c(-c3cccnc3[C@H](C)OC)n4CC)CC(C)(C)COC(=O)[C@@H]3CCCN(N3)C2=O)C(C)C)C1 (atropisomer, axis not shown) [Example A661]",100 to 1000 nM,100 to 1000 nM,100 to 1000 nM,10 to 100 nM,10 to 100 nM,< 5000 nM,100 to 1000 nM
"C=CC(=O)N1C[C@H]2CN(C(=O)N(C)[C@H](C(=O)N[C@H]3Cc4nc(cs4)-c4ccc5c(c4)c(c(-c4cccnc4[C@H](C)OC)n5CC)CC(C)(C)COC(=O)[C@@H]4CCCN(N4)C3=O)C(C)C)[C@H]2C1 (atropisomer, axis not shown) [Example A686]",100 to 1000 nM,100 to 1000 nM,100 to 1000 nM,10 to 100 nM,10 to 100 nM,< 5000 nM,100 to 1000 nM
"C=CC(=O)N1CC[C@H](C(=O)N(C)[C@H](C(=O)N[C@H]2Cc3coc(n3)-c3ccc4c(c3)c(c(-c3cccnc3[C@H](C)OC)n4CC)CC(C)(C)COC(=O)[C@@H]3CCCN(N3)C2=O)C(C)C)C1 (atropisomer, axis not shown) [Example A468]",1000 to 10000 nM,1000 to 10000 nM,1000 to 10000 nM,1000 to 10000 nM,100 to 1000 nM,< 5000 nM,1000 to 10000 nM
"C=CC(=O)N1CCO[C@H]2CN(C(=O)N(C)[C@H](C(=O)N[C@H]3Cc4nc(cs4)-c4ccc5c(c4)c(c(-c4cccnc4[C@H](C)OC)n5CC)CC(C)(C)COC(=O)[C@@H]4CCCN(N4)C3=O)C(C)C)C[C@@H]21 (atropisomer, axis not shown) [Example A544]",100 to 1000 nM,100 to 1000 nM,100 to 1000 nM,10 to 100 nM,< 10 nM,< 5000 nM,100 to 1000 nM
"CO[C@@H](C)c1ncccc1-c1c2c3cc(ccc3n1CC(F)(F)F)-c1cc(CF)cc(c1)C[C@H](NC(=O)[C@@H](COC1CN(C(=O)C#CC(C)(C)N(C)C)C1)C(C)C)C(=O)N1CCC[C@H](N1)C(=O)OCC(C)(C)C2 (atropisomer, axis not shown) [Example A589]",> 10000 nM,1000 to 10000 nM,> 10000 nM,> 10000 nM,10 to 100 nM,< 5000 nM,1000 to 10000 nM
"CCn1c(-c2cccnc2[C@H](C)OC)c2c3cc(ccc31)-c1csc(n1)C[C@H](NC(=O)C[C@@H]1COC3(CN(C(=O)C#CC(C)(C)N(C)C)C3)O1)C(=O)N1CCC[C@H](N1)C(=O)OCC(C)(C)C2 (atropisomer, axis not shown) [Example A691]",1000 to 10000 nM,1000 to 10000 nM,1000 to 10000 nM,1000 to 10000 nM,< 10 nM,< 5000 nM,1000 to 10000 nM
"CCn1c(-c2cccnc2[C@H](C)OC)c2c3cc(ccc31)-c1nc(co1)C[C@H](NC(=O)[C@@H](COC1CN(C(=O)C#CC(C)(C)N(C)C)C1)C(C)C)C(=O)N1CCC[C@H](N1)C(=O)OCC(C)(C)C2 (atropisomer, axis not shown) [Example A675, (2R)-2-(((1-(4-(dimethylamino)-4-methylpent-2-ynoyl)azetidin-3-yl)oxy)methyl)-N-((6^3S,4S,Z)-1^1-ethyl-1^2-(2-((S)-1-methoxyethyl)pyridin-3-yl)-10,10-dimethyl-5,7-dioxo-6^1,6^2,6^3,6^4,6^5,6^6-hexahydro-1^1H-8-oxa-2(2,4)-oxazola-1(5,3)-indola-6(1,3)-pyridazinacycloundecaphane-4-yl)-3-methylbutanamide]",> 10000 nM,> 10000 nM,> 10000 nM,> 10000 nM,10 to 100 nM,< 5000 nM,> 10000 nM
"C=CC(=O)N1CCOC2(CCN(C(=O)N(C)[C@H](C(=O)N[C@H]3Cc4nsc(n4)-c4ccc5c(c4)c(c(-c4cccnc4[C@H](C)OC)n5CC)CC(C)(C)COC(=O)[C@@H]4CCCN(N4)C3=O)C(C)C)CC2)C1 (atropisomer, axis not shown) [Example A545]",100 to 1000 nM,100 to 1000 nM,100 to 1000 nM,10 to 100 nM,10 to 100 nM,< 5000 nM,10 to 100 nM
"CCn1c(-c2cccnc2[C@H](C)OC)c2c3cc(ccc31)-c1cccc(c1)C[C@H](NC(=O)[C@@H](CO[C@@H]1CCN(C(=O)C#CC(C)(C)N(C)C)C1)C(C)C)C(=O)N1CCC[C@H](N1)C(=O)OCC(C)(C)C2 (atropisomer, axis not shown) [Example A584]",> 10000 nM,> 10000 nM,> 10000 nM,> 10000 nM,10 to 100 nM,< 5000 nM,1000 to 10000 nM
"CCn1c(-c2cccnc2[C@H](C)OC)c2c3cc(ccc31)-c1cc(CF)cc(c1)C[C@H](NC(=O)[C@@H](COC1CN(C(=O)C#CC(C)(C)N(C)C)C1)C(C)C)C(=O)N1CCC[C@H](N1)C(=O)OCC(C)(C)C2 (atropisomer, axis not shown) [Example A587]",> 10000 nM,> 10000 nM,> 10000 nM,> 10000 nM,10 to 100 nM,< 5000 nM,> 10000 nM
